A word on the solubility: it is the concentration that dissolves in the medium under given conditions.

Converted amounts (≈) assume the structure as drawn. Counter-ions that a name gives are not always drawn. Like-named read-outs stand apart in the source and are kept apart here. Bounds are passed on as bounds.

Data set [1] in a line: Palmitic acid in centrifuged fractions of 2-hydroxypropyl-β-cyclodextrin solution in D2O, by GLC (Example 7). Format: physicochemical. To be noted: Wacker HPBCD in D2O, 100,000× g 3 hours. The procedure: 2.25 g of Wacker 2-hydroxypropyl-β-cyclodextrin (Source C of Example 3) was dissolved in D2 O to give a final volume of 5.0 ml. 100 mg of palmitic acid was added to the solution and the mixture placed in an ultrasonic water bath at 60° C. for several hours, after which it was brought to room temperature and filtered through an 0.22 mμ millipore filter to obtain a clear solution. 3.0 ml of the solution was centrifuged at 100,000× g for 3 hours in a Beckman TL-100 centrifuge. Following centrifugation, aliquots of approximately 1.0 ml were removed from the tube to give upper, middle and lower fractions. A 0.1 ml aliquot from each fraction was pipetted into a tube and 1 mg of cholesterol added as an internal standard. Each tube was then partitioned between ethyl acetate and water to extract all of the palmitic acid and internal standard. The amount of palmitic acid in each aliquot was then determined by GLC using a flame detector.

Data set [2] is described as follows: Maximum solubility and guest/host molar ratios in 45% hydroxypropyl-β-cyclodextrin (Example 6). Format: physicochemical. To be noted: for solubility: 45% hpbcd. Here is the method: 45% (w/v) aqueous solutions of 2-hydroxypropyl-β-cyclodextrin using either source A or B (see Example 3) were prepared, and the maximum solubilities of phenoltetrabromphthalein and of cholesterol were determined per 5.0 ml of solution using standard techniques. Phenoltetrabromphthalein concentration was determined spectrophotometrically at 580 mμ. Cholesterol concentration was determined by both GLC and by liquid scintillation counting using cholesterol of known specific activity. The data are shown below, along with a summary of data from other examples.

For data set [3] the following is noted: cited from earlier work.
Data set [4] relates to intraocular pressure. Nature of the data set: Intraocular pressure after 1% methazolamide in 45% HPBCD, applanation tonometry (Example 5). Format: in vivo, New Zealand white rabbits. Particulars: dissolved in HPBCD. Here is the method: Solutions of 1% methazolamide in 45% HPBCD and the HPBCD alone (control) were applied to paired right and left eyes of New Zealand white rabbits. Intraocular pressure was measured by applanation tonometry until pressures returned to baseline.

For data set [5] the following is noted: with β-cyclodextrin at either 3% or 1.5%; topical; Grove et al.; cited from earlier work.
Data set [6] in a line: Maximum solubility and guest/host molar ratios in 45% hydroxypropyl-β-cyclodextrin (Example 6). Format: physicochemical. Particulars: source C (Wacker).
The nature of data set [7]: Maximum solubility of acetazolamide with commercial HPBCD preparations (Example 3). Format: physicochemical. From the text:
The solubility of the active agent can be determined by any of the conventional methods available. For example, solutions of the agent, prepared with and without a β-cyclodextrin derivative, can be filtered (e.g., using a 0.22 or 0.45 μm membrane filter) to eliminate undissolved agent, and subjected to chromatography (e.g., reverse-phase HPLC) to determine the concentration of agent present in the solution.
In order to assess the efficiency of 3 different commercially available preparations of HPBCD, the maximum solubility of acetazolamide (maximum solubility in water: 0.1%) was determined for each. The three sources of HPBCD were (A) Roquette (RE No. 446601), (B) American Maize ("Encapsin"), and (C) Wacker Chemical (BetaW7, HP0.9).

Data set [8] concerns anterior chamber of the eye. Nature of the data set: Fluorescence in anterior chamber after topical Na-Fluorescein, slit lamp biomicroscope. To be noted: 2% Na-Fluorescein in 0.9% saline; at one hour; rabbit. Format: in vivo, New Zealand white rabbit. The procedure: Solutions of 2% Na-Fluorescein were prepared in 0.9% Saline, 4.5% HPBCD, and 45% HPBCD (the HPBCD is Type B of Example 3). Each solution was applied to the eye of a New Zealand white rabbit and observed for a period of one hour. The anterior chamber of the eye was examined with a standard blue light source on a slit lamp biomicroscope.

Data set [9] concerns intraocular pressure of the normal rabbit eye. Particulars: topical, Silvestrini; cited from earlier work.
The test system of data set [10] is intraocular pressure. Nature of the data set: Intraocular pressure after topical acetazolamide preparations, Perkins applanation tonometer (Example 2). Format: in vivo, New Zealand white rabbits. Particulars: 1% Na-acetazolamide in 0.9% NaCl, FIG. 1. The procedure: Solutions of 1% acetazolamide in 45% HPBCD and 1% Na-acetazolamide in 0.9% NaCl were applied to paired right and left eyes of 10 New Zealand white rabbits (the HPBCD is Type B of Example 3). Intraocular pressure was measured with a Perkins applanation tonometer at hourly intervals until all pressures returned to baseline. […] As a further control, the acetazolamide/HPBCD preparation was compared with 45% HPBCD alone (control).

[11] abbreviates: source A (Roquette), read-out: maximum solubility.
Where [12] appears, read: source B (A. Maize), read-out: maximum solubility.

For the compound `CCCCCCCCCCCCCCCC(=O)O` [Palmitic acid, palmitic acid], the “Palmitic acid in fraction” value in data set [1] (Lower fraction) was found to be 23.4 μg/0.1 ml; in data set [1] (Middle fraction), 34.0 μg/0.1 ml; in [1] (Upper fraction), 41.0 μg/0.1 ml.

In the case of `C[C@@H](CO)CCC[C@@H](C)[C@H]1CC[C@H]2[C@@H]3CC=C4C[C@@H](O)CC[C@]4(C)[C@H]3CC[C@]12C` [26-hydroxy cholesterol], the guest/host molar ratio entry in data set [2] is given as “.16”. In addition, in data set [2] (maximum solubility), the solubility was 20000 µg/mL.

For the compound `CNCC(O)c1ccc(OC(=O)C(C)(C)C)c(OC(=O)C(C)(C)C)c1` (centres unmarked) [dipiviphrine], the “sensitivity developed by patients” value in data set [3] (human, in vivo) is reported as “frequently develop sensitivity”.

As to `CC(=O)/N=c1/sc(S(N)(=O)=O)nn1C` [methazolamide], in [4], the “duration of effect relative to acetazolamide” value is recorded as “longer duration of effect than does acetazolamide” and the “potency relative to acetazolamide” value is on record as “more potent”.

`CCN[C@H]1C[C@H](C)S(=O)(=O)c2sc(S(N)(=O)=O)cc21` [L-671152]: in data set [5], the “ocular bioavailability compared to inhibitor administered alone” value was “about 50%”.

Regarding `CC(=O)Nc1nnc(S(N)(=O)=O)s1` [acetazolamide], the guest/host molar ratio came to 0.31 in [2] (45% HPBCD, source B (A. Maize)) and 0.31 in [6] (45% HPBCD). For the same compound, the solubility in [2] (setting [11]) was > 5000 µg/mL; in [2] (setting [12]) it was 20000 µg/mL; in data set [6] (45% hpbcd), 20000 µg/mL; in [7] (hpbcd solution, HPBCD source A, Roquette (RE No. 446601), read-out: maximum solubility) it was 1000 µg/mL (≈ 4.5 mM); in data set [7] (hpbcd solution, HPBCD source B, American Maize ("Encapsin"), read-out: maximum solubility), 10000 µg/mL (≈ 45 mM); in data set [7] (hpbcd solution, HPBCD source C, Wacker Chemical (BetaW7, HP0.9), read-out: maximum solubility), 18000 µg/mL (≈ 81 mM). Also, the solubility in data set [7] (water, read-out: maximum solubility in water) is 1000 µg/mL (≈ 4.5 mM).

`CC(C)CCC[C@@H](C)[C@H]1CC[C@H]2[C@@H]3CC=C4C[C@@H](O)CC[C@]4(C)[C@H]3CC[C@]12C` [Cholesterol, cholesterol]: the guest/host molar ratio result in [2] (45% HPBCD, source A (Roquette)) was “.0015”; in data set [2] (45% HPBCD, source B (A. Maize)), “.038”. Moreover, the results for the solubility in data set [2] (setting [11]) and in data set [2] (setting [12]) were 80 µg/mL and 4300 µg/mL, respectively.

`O=C1OC2(c3ccc(O)cc3Oc3cc(O)ccc32)c2ccccc21` [Na-Fluorescein]: in [8], the “fluorescence seen in the eye” value was “considerable fluorescence”.

As to `CC(=O)Nc1nnc(S(N)(=O)=O)s1` [disodium salts of acetazolamide], in data set [9], the “lowering of intraocular pressure” value is “can be used to lower the intraocular pressure of the normal rabbit eye”.

Turning to `CC(=O)Nc1nnc(S(N)(=O)=O)s1` [Na-acetazolamide], in data set [10], the “lowering of intraocular pressure” value is reported as “only a transient, non-statistically significant lowering of intraocular pressure”.

As for `CNC[C@H](O)c1ccc(O)c(O)c1` [epinephrine], the “sensitivity developed by patients” value in data set [3] (topical, used for a year or longer) was “frequently develop sensitivity”.

The values above are taken from patent US5494901A, “Topical compositions for the eye comprising a β-cyclodextrin derivative and a therapeutic agent” (priority 1993, dated 1996).
